Measured values from ChEMBL document CHEMBL4270557, “Discovery of potent anti-convulsant carbonic anhydrase inhibitors: Design, synthesis, in vitro and in vivo appraisal” (Eur J Med Chem, 2018).

Assays:
Mus musculus [1] = experiment: Anticonvulsant activity in Swiss albino mouse assessed as protection against maximal electroshock-induced seizures at 100 mg/kg, ip administered 0.5 hrs prior to 50 mA current induction relative to control
Mus musculus [2] = experiment: Anticonvulsant activity in Swiss albino mouse assessed as protection against subcutaneous PTZ-induced seizures at 100 mg/kg, ip administered 3 hrs prior to PTZ-induction relative to control; assay type: functional
Rattus norvegicus [3] = experiment: Sub-acute toxicity in Wistar rat assessed as neutrophils level at 100 mg/kg, po administered daily for 14 days (reference value: 23.4 +/- 2.9%); assay type: organism-based; settings: in vivo, 336 h
Rattus norvegicus [4] = experiment: Sub-acute toxicity in Wistar rat assessed as basophils level at 100 mg/kg, po administered daily for 14 days (reference value: 0.16 +/- 0.4%); assay type: organism-based; settings: in vivo, 336 h
Rattus norvegicus [5] = experiment: Anticonvulsant activity in Wistar rat assessed as protection against maximal electroshock-induced seizures at 30 mg/kg, po administered 2 hrs prior to 150 mA current induction relative to control; assay type: functional
Mus musculus [6] = experiment: Anticonvulsant activity in Swiss albino mouse assessed as protection against maximal electroshock-induced seizures at 100 mg/kg, ip administered 0.5 hrs prior to 50 mA current induction relative to control; assay type: functional
Rattus norvegicus [7] = experiment: Sub-acute toxicity in Wistar rat assessed as effect on water intake at 100 mg/kg, po administered daily for 14 days; assay type: organism-based; settings: in vivo, 336 h
Mus musculus [8] = experiment: Anticonvulsant activity in Swiss albino mouse assessed as protection against maximal electroshock-induced seizures at 30 mg/kg, ip administered 4 hrs prior to 50 mA current induction relative to control; assay type: functional
Mus musculus [9] = experiment: Anticonvulsant activity in Swiss albino mouse assessed as protection against maximal electroshock-induced seizures at 100 mg/kg, ip administered 3 hrs prior to 50 mA current induction relative to control; assay type: functional
Rattus norvegicus [10] = experiment: Sub-acute toxicity in Wistar rat assessed as change in behavior at 100 mg/kg, po administered daily for 14 days; assay type: organism-based; settings: in vivo, 336 h
Rattus norvegicus [11] = experiment: Sub-acute toxicity in Wistar rat assessed as SGPT level at 100 mg/kg, po administered daily for 14 days (reference value: 58.8 +/- 18.8 U/L); assay type: organism-based; settings: in vivo, 336 h
Rattus norvegicus [12] = experiment: Anticonvulsant activity in Wistar rat assessed as protection against maximal electroshock-induced seizures at 30 mg/kg, po administered 4 hrs prior to 150 mA current induction relative to control; assay type: functional
Mus musculus [13] = experiment: Anticonvulsant activity in Swiss albino mouse assessed as protection against maximal electroshock-induced seizures at 30 mg/kg, ip administered 3 hrs prior to 50 mA current induction relative to control; assay type: functional
Mus musculus [14] = experiment: Anticonvulsant activity in Swiss albino mouse assessed as protection against subcutaneous PTZ-induced seizures at 30 mg/kg, ip administered 3 hrs prior to PTZ-induction relative to control; assay type: functional
Rattus norvegicus [15] = experiment: Sub-acute toxicity in Wistar rat assessed as total bilirubin level at 100 mg/kg, po administered daily for 14 days (reference value: 0.37 +/- 0.11 mg/dl); assay type: organism-based; settings: in vivo, 336 h
Rattus norvegicus [16] = experiment: Sub-acute toxicity in Wistar rat assessed as monocytes level at 100 mg/kg, po administered daily for 14 days (reference value: 2.6 +/- 1.5%); assay type: organism-based; settings: in vivo, 336 h
Rattus norvegicus [17] = experiment: Sub-acute toxicity in Wistar rat assessed as platelet level at 100 mg/kg, po administered daily for 14 days (reference value: 760.8 +/- 179.9 10^3/mm3); assay type: organism-based; settings: in vivo, 336 h
Rattus norvegicus [18] = experiment: Sub-acute toxicity in Wistar rat assessed as creatinine level at 100 mg/kg, po administered daily for 14 days (reference value: 0.62 +/- 0.3 mg/dl); assay type: organism-based; settings: in vivo, 336 h
Carbonic anhydrase 9 = Carbonic anhydrase 9 (Homo sapiens, UniProt Q16790); experiment: Inhibition of human recombinant carbonic anhydrase 9 assessed as CO2 hydration preincubated for 15 mins prior to testing measured for 10 to 100 secs by phenol red dye-based stopped-flow assay
Carbonic anhydrase 7 = Carbonic anhydrase 7 (Homo sapiens, UniProt P43166); experiment: Inhibition of human recombinant carbonic anhydrase 7 assessed as CO2 hydration preincubated for 15 mins prior to testing measured for 10 to 100 secs by phenol red dye-based stopped-flow assay
Sequence of Carbonic anhydrase 7 (P43166 whole entry): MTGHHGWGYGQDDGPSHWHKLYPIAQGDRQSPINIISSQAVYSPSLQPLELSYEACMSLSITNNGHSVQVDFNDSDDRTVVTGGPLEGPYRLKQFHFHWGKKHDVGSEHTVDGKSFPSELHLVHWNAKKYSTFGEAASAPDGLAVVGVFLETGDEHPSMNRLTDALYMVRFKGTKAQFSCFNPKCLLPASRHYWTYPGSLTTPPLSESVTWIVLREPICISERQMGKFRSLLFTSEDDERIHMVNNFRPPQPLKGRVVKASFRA

Rattus norvegicus [19] = experiment: Sub-acute toxicity in Wistar rat assessed as total protein level at 100 mg/kg, po administered daily for 14 days (reference value: […]); assay type: organism-based; settings: in vivo, 336 h
Rattus norvegicus [20] = experiment: Sub-acute toxicity in Wistar rat assessed as alkaline phosphatase level at 100 mg/kg, po administered daily for 14 days (reference value: 113.2 +/- 15.1 U/L); assay type: organism-based; settings: in vivo, 336 h
Rattus norvegicus [21] = experiment: Sub-acute toxicity in Wistar rat assessed as eosinophils level at 100 mg/kg, po administered daily for 14 days (reference value: 2 +/- 1.4%); assay type: organism-based; settings: in vivo, 336 h
Mus musculus [22] = experiment: Anticonvulsant activity in Swiss albino mouse assessed as protection against maximal electroshock-induced seizures at 30 mg/kg, ip administered 2 hrs prior to 50 mA current induction relative to control; assay type: functional
Mus musculus [23] = experiment: Anticonvulsant activity in Swiss albino mouse assessed as protection against subcutaneous PTZ-induced seizures at 30 mg/kg, ip administered 0.5 hrs prior to PTZ-induction relative to control; assay type: functional
Carbonic anhydrase 2 = Carbonic anhydrase 2 (Homo sapiens, UniProt P00918); experiment: Inhibition of human recombinant carbonic anhydrase 2 assessed as CO2 hydration preincubated for 15 mins prior to testing measured for 10 to 100 secs by phenol red dye-based stopped-flow assay
Rattus norvegicus [24] = experiment: Sub-acute toxicity in Wistar rat assessed as Cl- level at 100 mg/kg, po administered daily for 14 days (reference value: 104.1 +/- 6.2 mEq/L); assay type: organism-based; settings: in vivo, 336 h
Rattus norvegicus [25] = experiment: Sub-acute toxicity in Wistar rat assessed as SGOT level at 100 mg/kg, po administered daily for 14 days (reference value: 69.9 +/- 7.7 U/L); assay type: organism-based; settings: in vivo, 336 h
Rattus norvegicus [26] = experiment: Anticonvulsant activity in Wistar rat assessed as protection against maximal electroshock-induced seizures at 30 mg/kg, po administered 1 hr prior to 150 mA current induction relative to control; assay type: functional
Mus musculus [27] = experiment: Anticonvulsant activity in Swiss albino mouse assessed as protection against maximal electroshock-induced seizures at 30 mg/kg, ip administered 0.5 hrs prior to 50 mA current induction relative to control; assay type: functional
Homo sapiens [28] = organism: Homo sapiens; experiment: Selectivity ratio of Ki for human recombinant carbonic anhydrase 9 to Ki for human recombinant carbonic anhydrase 7
Rattus norvegicus [29] = experiment: Sub-acute toxicity in Wistar rat assessed as effect on food intake at 100 mg/kg, po administered daily for 14 days; assay type: organism-based; settings: in vivo, 336 h
Rattus norvegicus [30] = experiment: Sub-acute toxicity in Wistar rat assessed as mortality at 100 mg/kg, po administered daily for 14 days; assay type: organism-based; settings: in vivo, 336 h
Rattus norvegicus [31] = experiment: Sub-acute toxicity in Wistar rat assessed as uric acid level at 100 mg/kg, po administered daily for 14 days (reference value: 3.9 +/- 2.8 mg/dl); assay type: organism-based; settings: in vivo, 336 h
Homo sapiens [32] = organism: Homo sapiens; experiment: Selectivity ratio of Ki for human recombinant carbonic anhydrase 1 to Ki for human recombinant carbonic anhydrase 7
Homo sapiens [33] = organism: Homo sapiens; experiment: Selectivity ratio of Ki for human recombinant carbonic anhydrase 2 to Ki for human recombinant carbonic anhydrase 7

## Cc1ccc(N2CCN(c3ccc(/C=N/NC(=O)c4ccc(S(N)(=O)=O)cc4)cc3)CC2)c(C)c1
Mus musculus [1]
  Activity: 50%
Mus musculus [2]
  Activity: 83%
Rattus norvegicus [3]
  Activity: 23.1%
Rattus norvegicus [4]
  Activity: 0.33%
Rattus norvegicus [5]
  Activity: 67%
Mus musculus [6]
  Activity: 50%
Rattus norvegicus [7]
  Activity: Non-Toxic
Mus musculus [8]
  Activity: 50%
Mus musculus [9]
  Activity: 50%
Rattus norvegicus [10]
  Activity: Non-Toxic
Rattus norvegicus [11]
  Activity: 60.3 U/L
Rattus norvegicus [12]
  Activity: 50%
Mus musculus [13]
  Activity: 70%
Mus musculus [14]
  Activity: 67%
Rattus norvegicus [15]
  Activity: 0.35 mg/dL
Rattus norvegicus [16]
  Activity: 2%
Rattus norvegicus [17]
  Activity: 622.3 ×10³ /mm3
Rattus norvegicus [18]
  Activity: 0.75 mg/dL
Carbonic anhydrase 9
  Ki: 1660 nM
Carbonic anhydrase 7
  Ki: 17.8 nM
Rattus norvegicus [19]
  Activity: 6.62 g/dL
Rattus norvegicus [20]
  Activity: 96.5 U/L
Rattus norvegicus [21]
  Activity: 2.6%
Mus musculus [22]
  Activity: 60%
Mus musculus [23]
  Activity: 50%
Carbonic anhydrase 2
  Ki: 9390 nM
Rattus norvegicus [24]
  Activity: 105.6 mEq/L
Rattus norvegicus [25]
  Activity: 65 U/L
Rattus norvegicus [26]
  Activity: 84%
Mus musculus [27]
  Activity: 67 - 70%
Homo sapiens [28]
  Ratio Ki: 93
Rattus norvegicus [29]
  Activity: Non-Toxic
Rattus norvegicus [30]
  Activity: Non-Toxic
Rattus norvegicus [31]
  Activity: 4.33 mg/dL
Homo sapiens [32]
  Ratio Ki: 561
Homo sapiens [33]
  Ratio Ki: 527
